Data on 13 compounds can be found in US20060263403A1, “Compositions and methods for controlling insects involving the tyramine receptor” (priority 2003, published 2006).

Experiment [1] addresses T1, Drosophila melanogaster tyramine receptor (TyrR) (Drosophila melanogaster, UniProt P22270, C261Y).
T1 construct: The open reading frame encodes a protein of 601 amino acids; expressed in transfected cells
As to the kind of experiment: biochemical. Format: binding. As to the method: All steps are performed at 4° C. or on ice. Cells grown in Drosophila media are harvested in the same media by scraping from the dishes and then rinsing dishes with PBS. The cells are centrifuged at 1000 g for 3 min, washed once with PBS and centrifuged again as previously described. The cells are suspended in ice cold hypotonic buffer (10 mM Tris-Cl, pH 7.4), incubated on ice for 10 min, and lysed using a glass dounce homogenizer and tight glass pestle (Kontes Glass Co., Vineland, N.J.) with 10 strokes. Nuclei are pelleted by centrifugation at 600 g for 5 min. The supernatant is decanted and centrifuged at 30,000 g for 30 min to pellet a crude membrane fraction. The pellet is suspended in binding buffer (50 mM Tris-Cl, 5 mM MgCl2, pH 7.4). Protein concentration is determined by the Bradford Assay (Bio-Rad Laboratories, Hercules, Calif.). Membranes are frozen on dry ice then stored at −75° C. in aliquots.
For the receptor binding assay, radioligand binding is performed in 500 μl binding buffer containing 10-50 μg membrane protein and 4 nM ^3H-tyramine. The binding reaction is incubated at 23° C. in the presence and absence of 10 μM unlabeled tyramine. Reactions are terminated after 60 min by addition of 3 ml ice cold binding buffer and filtered over GF/C filters that has been soaked for 30 min in 0.3% polyethylenimine. Filters are rinsed one additional time with 3 ml binding buffer. […] The binding activity of tyramine receptor is also studied in the presence and absence of five plant essential oils, shown in FIG. 1. Binding data is analyzed by Scatchard plots using the software GraphPad Prism (San Diego, Calif.). All binding analyses are performed 3 times with duplicate samples in each assay.
The binding activity of ^3H-tyramine to membranes expressing the tyramine receptor is performed in the presence and absence of five plant essential oils. These chemicals are selected based on their insecticidal activity and the absence or presence and location of the hydroxyl group within the molecule. […] The specific activity is calculated as the difference between counts in the presence and absence of test chemical.

Experiment [2] concerns the target T1, Drosophila melanogaster tyramine receptor (TyrR). The experiment is described as follows: Intracellular calcium assay (Fura-2 AM) in S2 cells stably expressing pAC-TyrR. Particulars: for change in [Ca2+]i in response to plant essential oil: 25 μM, compared to EtOH treatment. Format: cell-based. As to the method:
(§1) Cells are washed once with insect saline buffer. Cells are collected by scraping and suspended at 1×10^6 cells/ml in insect saline buffer with 5 μM Fura-2 AM. Cells are incubated at 23° C. for 1 hr in the dark, centrifuged, suspended in 1 ml insect saline buffer, and used immediately for calcium measurements. […] This assay is performed four separate times. Data are normalized by dividing each value by the background fluorescence at the beginning of the assay before adding test ligand.

Experiment [3] has as its system S2 cells transfected with plasmid lacking TyrR. The experiment is described as follows: cAMP assay in control S2 cells transfected with plasmid lacking TyrR. Format: cell-based, Drosophila melanogaster. Particulars: TA up to 100 μM, compared to non-transfected cells. As to the method:
(§2) Twenty four hours before cell treatment, 300,000 cells from clone#2 and control cells are plated in 1 ml media with 25 μg blasticidin/ml into 12 well dishes (4.5 cm^2). For cell treatment, the media is aspirated and 1 ml PBS with 300 μM IBMX (3-isobutyl-1-methylxanthine) and the test reagent is added. […] After 10 min incubation, the PBS is aspirated and cells are incubated with 70% ethanol for 12 hours at −20° C. The cellular debris is centrifuged, and then the supernatant is removed and lyophilized to dryness. The amount of cAMP in the extract is determined by using a cAMP binding protein from the ^3H-cAMP Biotrak Assay System (Amersham Biosciences, Piscataway, N.J.) as per the manufacturer's instructions. Cell treatment is performed 3 times with duplicates at each concentration. To test the effects of calcium chelation on cAMP levels, the cells are incubated with 20 μM BAPTA/AM for 10 min before the addition of TA.
(In general: Changes in cAMP serve as a functional read-out for many G protein-coupled receptors.)

The subject of experiment [4] is S2 cells transfected with pAC lacking an insert. The experiment is described as follows: Intracellular calcium assay in S2 cells transfected with pAC lacking an insert. The experiment is classed as cell-based, Drosophila melanogaster. The settings on record: 10 μM TA, compared to untransfected S2 cells. As to the method:
as §1

The target of experiment [5] is T1, Drosophila melanogaster tyramine receptor (TyrR). As to the kind of experiment: cell-based. Particulars: for decrease in cAMP production: 25 μM, vs ethanol-treated cells 0.9056±0.078 pmol cAMP. The experiment is classed as cell-based. How it is done: as §2
Experiment [6] shares this target. Particulars: saturation binding, 0.1-30 nM 3H-tyramine, membranes of clone#2 S2 cells; read-out: Kd for specific binding.
The test system of experiment [7] is tyramine receptor mutant (TyrR^neo30) Drosophila melanogaster. Format: in vivo. Particulars: for toxicity against TyrR^neo30 strain compared with wild type: topical application. As to the method:
(§3) Quantitative Structure Activity Relationships (QSARs) for five monoterpenoid plant essential oils is determined against wild type and tyramine receptor mutant (TyrR^neo30) Drosophila melanogaster strains. […] In addition, monocyclic-unsaturated alcohol (a-terpenoil), and a monocylic di-unsaturated ketone (L-carvone) are also tested. […] Acetonic solutions of plant essential oils are prepared and different concentrations of each, that gave from 10%-100% mortality, are applied by topical application. Three replicates, with 5 flies per replicate, are used for each concentration. Controls treated with the same volume (0.5 μl/fly) of acetone. […] To determine whether the tyramine receptor is involved in the toxicity of tested plant essential oils, tyramine receptor mutant (TyrR^neo30) Drosophila melanogaster strain is topically treated with a dose equivalent to the determined LD50 for wild type strain. The mortality is calculated 24 hrs after treatment. Three replicates and 5 insects per replicate are used for the bioassay of each chemical. This bioassay is repeated five times.

Experiment [8] relates to wild type Drosophila melanogaster. The experiment is described as follows: Topical toxicity bioassay against wild type Drosophila melanogaster fly. Particulars: for Wild type-calculated LD50 values: topical application, probit analysis; for % Mortality at LD50 of wild type Drosophila melanogaster strain: Wild type: topical dose equal to wild type LD50, 24 h after treatment. Format: in vivo. How it is done:
as §3

SMILES strings stand for the structures. Like-named read-outs stand apart in the source and are kept apart here.

As usually defined, the Ki is a measure of affinity in units of concentration, obtained from inhibition or displacement. For orientation: IC50 means the point on the concentration scale where inhibition reaches its midpoint. Higher therefore signals a need for much substance. By Kd is commonly meant the constant that tells how readily two partners part at equilibrium.

T1 sequence (P22270 27-601 C261Y): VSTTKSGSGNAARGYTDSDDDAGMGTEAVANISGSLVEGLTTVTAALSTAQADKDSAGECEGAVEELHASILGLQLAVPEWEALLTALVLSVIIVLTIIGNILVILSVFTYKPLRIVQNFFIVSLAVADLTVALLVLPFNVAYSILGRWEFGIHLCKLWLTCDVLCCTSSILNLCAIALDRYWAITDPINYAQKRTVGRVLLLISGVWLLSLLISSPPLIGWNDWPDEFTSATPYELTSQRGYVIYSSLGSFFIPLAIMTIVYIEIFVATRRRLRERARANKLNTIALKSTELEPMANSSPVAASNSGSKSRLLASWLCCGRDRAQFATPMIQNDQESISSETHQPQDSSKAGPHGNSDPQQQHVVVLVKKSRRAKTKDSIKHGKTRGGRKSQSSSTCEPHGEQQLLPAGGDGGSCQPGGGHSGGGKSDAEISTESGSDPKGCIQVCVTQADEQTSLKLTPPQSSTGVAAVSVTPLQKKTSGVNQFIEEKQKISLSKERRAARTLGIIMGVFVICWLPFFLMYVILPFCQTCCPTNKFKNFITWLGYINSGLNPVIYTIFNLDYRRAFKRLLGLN

On to `NCCc1c[nH]cn1` [Histamine (His), Histamine], for which, in experiment [1], the Ki amounted to 193 ± 16.8 µM.
Take `CC(=O)OCOC(=O)CN(CC(=O)OCOC(C)=O)c1ccccc1OCCOc1ccccc1N(CC(=O)OCOC(C)=O)CC(=O)OCOC(C)=O` [BAPTA/AM]: the “effect on TA-induced increase in free [Ca2+]i” value in experiment [2] (20 μM BAPTA/AM, 1 μM TA) is “inhibit the increase in free [Ca^2+]i”.
`NCCc1ccc(O)cc1` [Tyramine (TA), Tyramine]: in experiment [3], the “effect on cAMP levels in control cells” value is listed as “significant effects on cAMP levels as compared to non-transfected cells are not produced”. This compound also showed a Ki in experiment [1] of 1.27 µM. The “affinity of TA relative to DL-octopamine for TyrR” value in experiment [1] (ratio of Ki values) was “about 22.58 fold”. Also, in experiment [4], the “effect on [Ca2+]i in control cells” value was “does not increase the level of [Ca^2+]i”. For the same compound, 5.8 µM corresponded to half-maximal inhibition in experiment [5] (IC50). For the same compound, the “decrease in the basal level of cAMP” value in experiment [5] (TA 10 μM, 300 μM IBMX, basal 0.601±0.080 pmol cAMP) came to 18%. For the same compound, the “change in [Ca2+]i in response to TA” value in experiment [2] (1 μM TA, clone#2 cells) was “rapid increase in [Ca^2+]i”. For the same compound, the “duration of transient peak in [Ca2+]i level” value in experiment [2] (TA application) is about 20 s. Besides, the “lowest concentration that can increase [Ca2+]i levels” value in experiment [2] (clone#2 cells) is 20 nM.
Compound `Cc1ccc(N(CC2=NCCN2)c2cccc(O)c2)cc1` [Phentolamine] came in with a Ki in experiment [1] of 0.125 ± 0.02 µM.
Take `NCCc1ccc(O)cc1` [^3H-tyramine]: the equilibrium dissociation constant (Kd) in experiment [6] stood at 0.00256 µM.
Take `Cc1ccc(C(C)C)cc1` [p-cymene, 1-methyl-4-(1-methylethyl)benzene]: the “% Mortality at LD50 of wild type Drosophila melanogaster strain: TyrR^neo30” value in experiment [7] (in vivo) was 56.0%. In addition, the “toxicity against TyrR^neo30 strain compared with wild type” value in experiment [7] is “does not affect the toxicity”. Also, the “decrease in cAMP production” value in experiment [5] (300 μM IBMX) worked out at 13%. In experiment [8], the “Wild type-calculated LD50 values” is on record as 15.5 μg/fly and the “% Mortality at LD50 of wild type Drosophila melanogaster strain: Wild type” value is 57.3%. In experiment [2], the “change in [Ca2+]i in response to plant essential oil” value (shortened to “change … to plant essential oil”) was “slight increase in [Ca^2+]i”.
Consider `NCCc1ccc(O)c(O)c1` [Dopamine (DA), Dopamine], for which the inhibition constant Ki in experiment [1] was found to be 57.5 ± 3.91 µM.
On to `NCC(O)c1ccc(O)cc1` (racemic) [Octopamine (OA), DL-octopamine], for which the Ki in experiment [1] (competitive binding vs 4 nM 3H-tyramine, membranes from Schneider Drosophila cells expressing TyrR, mean and standard deviation, read-out: Ki) amounted to 28.7 µM.
In the case of `CN(C)CCCN1c2ccccc2Sc2ccc(Cl)cc21` [Chlorpromazine], in experiment [1], affinity was put at a Ki of 0.193 ± 0.05 µM.
`C=C(C)[C@@H]1CC=C(C)C(=O)C1` [L-carvone, p-mentha-6,8-dien-2-one]: the “toxicity against TyrR^neo30 strain compared with wild type” value in experiment [7] is on record as “does not affect the toxicity”. Further, the “% Mortality at LD50 of wild type Drosophila melanogaster strain: TyrR^neo30” value in experiment [7] (topical dose equal to wild type LD50, 24 h after treatment) came to 38.7%. Further, the “decrease in cAMP production” value in experiment [5] (300 μM IBMX) is on record as 24%. In experiment [8], the “Wild type-calculated LD50 values” is 2.3 μg/fly and the “% Mortality at LD50 of wild type Drosophila melanogaster strain: Wild type” value amounted to 37.3%. Also, the “toxicity of L-carvone relative to a-terpineol” value in experiment [8] (wild type strain) is “about 5 fold”. The “change … to plant essential oil” value in experiment [2] is “remarkable increase in [Ca^2+]i”.
In experiment [1], `COC(=O)[C@@H]1[C@H]2C[C@H]3c4[nH]c5ccccc5c4CCN3C[C@@H]2CC[C@@H]1O` [Yohimbine] yielded a Ki of 0.071 ± 0.001 µM.
The compound `NCCc1c[nH]c2ccc(O)cc12` [Serotonin (SE), Serotonin] yielded a Ki in experiment [1] of 89.5 ± 9.01 µM.
Consider `CC1=CCC(C(C)(C)O)CC1` (stereo not drawn) [a-terpineol, p-menth-1-en-8-ol], for which, in experiment [5] (300 μM IBMX), the “decrease in cAMP production” value came to 22%. Besides, in experiment [2], the “change … to plant essential oil” value is “remarkable increase in [Ca^2+]i”.
